This note sets out measurements from publication PMC4751996 (Journal of medicinal chemistry, 2015).

Residues, ends and D or L forms follow the SMILES beside them.

For test [1], the system named is MDA-MB-231 and HCT116 cell lines. The test is described as follows: Growth inhibition screen, 3 day exposure, relative DNA content. The settings on record: 72 h; for inhibition at 1 µM: read-out: Drug Effect (avg) (1 μM); for inhibition at 10 µM: read-out: Drug Effect (avg) (10 μM).
For test [2], the target named is T1, hRRM1 (Homo sapiens, UniProt P23921).
T1 sequence (P23921 1-792): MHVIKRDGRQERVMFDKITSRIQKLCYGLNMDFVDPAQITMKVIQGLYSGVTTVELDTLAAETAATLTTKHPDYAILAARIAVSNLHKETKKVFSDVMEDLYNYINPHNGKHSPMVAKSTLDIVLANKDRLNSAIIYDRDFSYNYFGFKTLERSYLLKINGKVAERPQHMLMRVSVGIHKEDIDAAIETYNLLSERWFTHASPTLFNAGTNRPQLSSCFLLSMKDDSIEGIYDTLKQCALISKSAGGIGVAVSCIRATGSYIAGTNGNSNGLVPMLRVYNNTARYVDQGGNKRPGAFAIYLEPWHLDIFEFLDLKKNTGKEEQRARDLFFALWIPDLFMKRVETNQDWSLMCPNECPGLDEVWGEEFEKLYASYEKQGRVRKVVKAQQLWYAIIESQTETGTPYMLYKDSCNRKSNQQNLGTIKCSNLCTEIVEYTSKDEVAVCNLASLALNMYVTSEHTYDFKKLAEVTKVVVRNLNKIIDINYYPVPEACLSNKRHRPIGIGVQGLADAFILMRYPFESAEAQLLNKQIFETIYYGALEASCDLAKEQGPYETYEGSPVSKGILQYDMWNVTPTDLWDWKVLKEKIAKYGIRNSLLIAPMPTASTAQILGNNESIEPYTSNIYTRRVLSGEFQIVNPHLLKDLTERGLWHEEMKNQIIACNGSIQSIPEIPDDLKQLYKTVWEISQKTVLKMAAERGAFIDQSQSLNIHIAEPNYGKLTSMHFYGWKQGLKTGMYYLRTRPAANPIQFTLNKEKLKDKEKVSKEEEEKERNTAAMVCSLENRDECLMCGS
The test is described as follows: Tryptophan fluorescence quenching of hRRM1 at fixed ligand concentration. The settings on record: ligand 50 μM; hRRM1 0.1 mg/mL; excitation 295 nm.

The target in test [3] is T1, hRRM1. The test is described as follows: Gel filtration chromatography of hRRM1 oligomeric state. The settings on record: 50 μM dATP alone. (In general: SEC sorts molecules by how far they enter the pores of the column.)

Turning to `OC(COc1ccc(OCC(O)CN2CCN(C3c4ccccc4-c4ccccc43)CC2)cc1)CN1CCN(C2c3ccccc3-c3ccccc32)CC1` (stereo not shown) [Compound 1], in test [1], the inhibition at 1 µM is -39.6% and the inhibition at 10 µM was determined as 88%.

Turning to `CCOC(=O)C(NC(=O)CN[C@H]1CCCc2sccc21)C(=O)OCC` [Compound 2], in test [1], the inhibition at 1 µM was -19.9% and the inhibition at 10 µM was determined as 53.1%.

`CCCCCCCCCCCCCCNC(=O)[C@@H](N)CCN` [Compound 3]: in test [1], the inhibition at 1 µM worked out at 7.2% and the inhibition at 10 µM was found to be 69%.

For `CCC(C)(C)c1ccc(OCCCCNC(=O)c2cc(Oc3ccc([N+](=O)[O-])cc3)c3ccccc3c2O)c(C(C)(C)CC)c1` [Compound 5], in test [1], the inhibition at 1 µM was found to be 3.8% and the inhibition at 10 µM was found to be 39.8%.

With `CCCOc1ccc(C(=O)OCCN(CC)CC)cc1NS(=O)(=O)/C=C/c1ccccc1` [Compound 6], in test [1], the inhibition at 1 µM is -3.3% and the inhibition at 10 µM came to 4.3%.

With `CC(NCCCCCO)c1cc(OCc2ccccc2)cc(OCc2ccccc2)c1` (stereo not shown) [Compound 8], in test [1], the inhibition at 1 µM is -7.6% and the inhibition at 10 µM is 3.6%.

Take `CCOC(=O)C[C@@H](CC(=O)NCCN[C@H](C)c1ccc(O)c(C(=O)OC)c1)OC(C)=O` [Compound 9]: in test [1], the inhibition at 1 µM turned out to be 9.8% and the inhibition at 10 µM was 9.6%.

As for `CCCCCCCCCCCCCCCC(=O)N[C@@H](CCCCN)C(=O)N[C@@H](CCCCN)C(=O)OC` [Compound 10], in test [1], the inhibition at 1 µM was -21.9% and the inhibition at 10 µM was -8.9%.

Take `CC(C)C[C@H](NC(=O)[C@@H]1CCCN1C(=O)[C@H](Cc1cnc[nH]1)NC(=O)[C@@H](NC(=O)[C@H](Cc1ccc(O)cc1)NC(=O)[C@@H](NC(=O)[C@@H](N)CCCNC(=N)N)C(C)C)C(C)C)C(=O)O` [Compound 100207] (H-RVYVHPL-OH): the “% Fluorescence quenching” value on hRRM1 [2] is recorded as “No tryptophan fluorescence quenching”.

For `CC(C)=CCC/C(C)=C/CNC(=O)CNC(c1ccc[nH]1)C(F)(F)F` (stereo not shown) [Compound 184612], the “% Fluorescence quenching” value at hRRM1 [2] was “No tryptophan fluorescence quenching”.

For `Nc1ncnc2c1ncn2[C@H]1C[C@H](O)[C@@H](COP(=O)(O)OP(=O)(O)OP(=O)(O)O)O1` [dATP, deoxyadenosine 5′-triphosphate], the “hexamer to dimer ratio based on integration of the peaks” value on hRRM1 [3] is “approximately 3 fold”.
